≈ marks a conversion by molar mass, not a printed value.
Legend:
[1] = Thermodynamic solubility of compound at pH 7.4 aqueous phosphate buffer
[2] = Lipophilicity, logD of the compound at pH 7.4 by HPLC-DAD analysis; format: physicochemical; conditions: buffer
[3] = Metabolic stability in human liver microsomes assessed as compound remaining at 1 uM by LC-MS/MS analysis; format: ADME, Microsome; conditions: for Stabilty: microsomes, 1 µM
[4] = Metabolic stability in rat liver microsomes assessed as compound remaining at 1 uM by LC-MS/MS analysis; format: ADME, Microsome; conditions: for Stabilty: microsomes, 1 µM
[5] = Metabolic stability in mouse liver microsomes assessed as compound remaining at 1 uM by LC-MS/MS analysis; format: ADME, Microsome; conditions: for Stabilty: microsomes, 1 µM
[6] = Terminal half life in iv dosed C57BL/6 mouse measured up to 24 hrs by LC-MS/MS analysis; format: ADME, organism-based; conditions: in vivo
[7] = Volume of distribution in iv dosed C57BL/6 mouse measured up to 24 hrs by LC-MS/MS analysis; format: ADME, organism-based; conditions: in vivo
[8] = Unbound clearance in iv dosed C57BL/6 mouse measured up to 24 hrs by LC-MS/MS analysis; format: ADME, organism-based; conditions: in vivo
[9] = AUC (0 to t) in iv dosed C57BL/6 mouse measured up to 24 hrs by LC-MS/MS analysis; format: ADME, organism-based; parameters: time <=24; conditions: in vivo
[10] = tested on: Mycobacterium tuberculosis; assay: microbe, parasite or virus in culture; conditions: H37RvMA
Description: Antimycobacterial activity against drug-susceptible Mycobacterium tuberculosis H37RvMA by MIGIT method

[11] = tested on: Mycobacterium tuberculosis; assay: microbe, parasite or virus in culture; conditions: S2371
Description: Antimycobacterial activity against drug-susceptible Mycobacterium tuberculosis S2371 by MIGIT method

[12] = tested on: Mycobacterium tuberculosis; assay: microbe, parasite or virus in culture; conditions: S1125
Description: Antimycobacterial activity against drug-susceptible Mycobacterium tuberculosis S1125 by MIGIT method

[13] = Dru metabolism in iv dosed mouse assessed as metabolite in blood; format: ADME, organism-based; conditions: in vivo
[14] = Dru metabolism in iv dosed mouse assessed as metabolite in urine; format: ADME, organism-based; conditions: in vivo
[15] = Dru metabolism in iv dosed mouse assessed as metabolite in feces; format: ADME, organism-based; conditions: in vivo
[16] = tested on: Mycobacterium tuberculosis; format: functional; conditions: H37Rv
HepG2 [17] = assay: Cytotoxicity against human HepG2 cells under glucose containing medium; format: cell-based
HepG2 [18] = assay: Cytotoxicity against human HepG2 cells under galactose containing medium; format: cell-based
[19] = Plasma protein binding in human assessed as unbound fraction at 5 uM by LC-MS/MS analysis; format: ADME, cell-free
[20] = Oral bioavailability in mouse; format: ADME, organism-based; conditions: in vivo
[21] = tested on: Mycobacterium tuberculosis; assay: animal or person; format: functional; conditions: time 7 day
[22] = Toxicity in BALB/c mouse assessed as tolerability at 200 mg/kg, po once a day treatment initiated 7 days after infection for 12 consecutive days; format: organism-based; conditions: in vivo, 168 h, time 7 day
[23] = tested on: Mycobacterium tuberculosis; assay: microbe, parasite or virus in culture; conditions: H37Rv, 336 h
Description: Antimycobacterial activity against Mycobacterium tuberculosis H37Rv in presence of middlebrook 7H9/glucose/BSA/tyloxapol medium measured after 14 days by bioluminescence reporter assay

[24] = tested on: Mycobacterium tuberculosis; assay: microbe, parasite or virus in culture; conditions: H37RvMA, 336 h
Description: Antimycobacterial activity against Mycobacterium tuberculosis H37RvMA in presence of middlebrook 7H9/glucose/BSA/tyloxapol medium measured for 2 weeks by bioluminescence reporter assay

[25] = tested on: Mycobacterium tuberculosis; assay: microbe, parasite or virus in culture; conditions: 336 h
Description: Antimycobacterial activity against Mycobacterium tuberculosis delta cyd in presence of middlebrook 7H9/glucose/BSA/tyloxapol medium measured for 2 weeks by bioluminescence reporter assay

[26] = liver microsomes, read-out: Stabilty

Structure (SMILES)	solubility thermodynamic [1] [µM]	logD [2]	Stabilty [3] [%]	Stabilty [4] [%]	Stabilty [5] [%]	Vd ([7]; C57BL/6, mouse, read-out: Vd) [L/kg]	CL free [8] [mL/min/kg]	AUCt [9] [µmol·min/L]	further results
CS(=O)(=O)NC(=O)CCc1cn(-c2ccc(Br)cc2)nc1-c1ccncc1	185 (≈ 83.1 µg/mL)	0.93	85	94	79	0.1	> 20000	15	beta t1/2 ([6]; mouse, 24 h): 1.3 h; MIC [10]: ≤ 15 µM; MIC [11]: 30 µM (≈ 13.5 µg/mL); MIC [12]: 15 µM (≈ 6.74 µg/mL)
CS(=O)(=O)NC(=O)NCc1cn(-c2ccc(Cl)cc2)nc1-c1ccncc1	150 (≈ 60.9 µg/mL)	0.81	99	98	91	–	4878	29	Drug metabolism [13]: Metabolite_Notdetected; Drug metabolism [14]: Metabolite_Notdetected; Drug metabolism [15]: Metabolite_Notdetected
CS(=O)(=O)NC(=O)CCc1cn(-c2ccc(Br)cc2)nc1-c1ccc(Cl)cc1	170 (≈ 82.1 µg/mL)	2.4	90	74	71	–	295	3527	IC90 [16]: 6.25 µM; IC50 (HepG2 [17]): > 50 µM; IC50 (HepG2 [18]): > 50 µM; Vd ([7]; mouse, 24 h): 0.2 L/kg
CS(=O)(=O)NC(=O)CCc1cn(-c2ccc(Cl)cc2)nc1-c1ccc(Cl)cc1	100 (≈ 43.8 µg/mL)	–	–	–	–	1.2	111	4883	logD ([2]; read-out: logD): 2; remaining at 1 µM [3, 26]: 98%; remaining at 1 µM [4, 26]: > 99%; remaining at 1 µM [5, 26]: 87%; fraction unbound at 5 µM [19]: 0.023; half-life ([6]; C57BL/6, mouse, read-out: beta t1/2 (converted)): 3.6 h; bioavailability [20]: > 95%; MIC at 200 mg/kg ([21]; Mycobacterium tuberculosis, Erdman, in Mus musculus, po, 168 h): 9.1 µM (≈ 3.99 µg/mL); fIC50 ([21]; dose 200 mg/kg): 11 µM; Activity [22]: Non-Toxic; MIC [23]: 4.7 µM (≈ 2.06 µg/mL); MIC [24]: 4 µM (≈ 1.75 µg/mL); MIC [25]: 4 µM (≈ 1.75 µg/mL)
